According to patent US20260200845A1, “NEUTROPHIL ELASTASE INHIBITOR AND USE THEREOF” (Shanghai Yidi Biotechnology Co., Ltd, priority 2023, published 2026):

Columns and labels:
rhELA2 = target: T1, rhELA2 (Homo sapiens, UniProt P08246); experiment: Neutrophil elastase (rhELA2) fluorescence inhibition assay; assay type: biochemical; settings: rhELA2 activated with DPPI; 30 min preincubation, 1 hr with substrate, fluorescence 360 nm/450 nm
T1 sequence (P08246 30-267): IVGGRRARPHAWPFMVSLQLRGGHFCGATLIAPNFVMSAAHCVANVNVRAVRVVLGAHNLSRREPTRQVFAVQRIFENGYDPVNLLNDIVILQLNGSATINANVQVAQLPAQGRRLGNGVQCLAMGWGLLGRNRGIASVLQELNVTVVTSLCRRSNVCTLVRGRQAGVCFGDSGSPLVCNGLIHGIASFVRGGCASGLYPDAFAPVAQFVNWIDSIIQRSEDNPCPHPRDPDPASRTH
Procedure: Compound preparation: All compounds were dissolved in DMSO at a concentration of 10 mM, and stored at −20° C.
A 1× assay buffer was prepared. […] 1 μL of the serially diluted compound and 65.67 μL of the assay buffer were added into a plate, to obtain 3× working solutions of the positive compound and the test compounds (the final concentration in DMSO was 1.5%). The plate was sealed with a sealing film and shaken on an oscillator for 15 min.
A 1× activation buffer was prepared. rhELA2 was diluted in the activation buffer containing DPPI and incubated at 37° C. for 2 hrs to activate rhELA2. 5 μl of the 3× diluted working solutions of the compound was added to a 384-well plate. rhELA2 was diluted with the 1× assay buffer, to obtain a 3× working solution of rhELA2. 5 μl of the 3× working solution of rhELA2 was added to each well of the 384-well plate. The plate was sealed and incubated for 30 min at room temperature in the dark.
A 3× substrate solution was prepared in the 1× assay buffer. 5 μl of the 3× working solution of the substrate was added into the 384-well plate. The 384-well plate was centrifuged at 1000 rpm for 1 min, and incubated for 1 hr at room temperature in the dark. The fluorescence value FLU at 360 nm/450 nm was read on a plate reader.
The inhibition rate % was calculated. Inhibition rate=(1−(FLU of the compound−FLU of the positive well)/(FLU of the reference well−FLU of the positive well)). FLU of the reference well is that of a well with only the enzyme and no the inhibitor, and FLU of the positive well is that of a well with the enzyme and 3000 nm Sivelestat-2. Then the IC50 value was calculated by the formula Y=Bottom+(Top−Bottom)/(1+10^((LogIC50−X)*HillSlope)) using Graphpad 8.0 software.

[1] = test system: mouse model of LPS-induced acute lung injury; experiment: Animal Test 1: mouse model of LPS-induced acute lung injury; assay type: in vivo, ICR mice; settings: for Content of inflammatory factor IL-1β (Mean ± SD) / Content of inflammatory factor TNF-α (Mean ± SD): left lung homogenate supernatant, 24 h after LPS, i.v. 25 mg/kg at 0.5 h, 4 h and 12 h, total 75 mg/kg
Procedure: Test animals: ICR mice, SPF grade, male, weight at the time of administration: 25-28 g.
Animal grouping: 4 groups, each group having 10 animals.
Establishment of mouse model of LPS-induced acute lung injury: The mice were anesthetized by intramuscular injection of Zoletil®50 (0.05 mL/mouse). Then the mice were fixed in a supine position, the cervical trachea was isolated, and lipopolysaccharide (LPS) (1 mg/mL, 35 μL/mouse) was sprayed by a high-pressure atomizing nozzle. The neck skin was sutured, and disinfected with iodophor.
The dosage at each administration was 25 mg/kg, and the total daily dosage was 75 mg/kg.
24 h after LPS was sprayed into the trachea of mice, the mice were sacrificed, and the trachea was isolated and intubated. The left lung lobe was ligated. The lung lavage was carried out with 0.5 mL normal saline (containing 1% serum and 2 U/mL heparin), and then the process was repeated two times. The lavage fluids of the 3 times were mixed and stood on ice for later use. The ligated left lung lobe was removed from the animal Nos. 1-8 in the blank control group, the model group, the test group and the positive control group respectively, weighed, added with 0.9% NaCl at a ratio of 1:6, homogenized at 4° C. and centrifuged at 10000 rpm for 10 min. The supernatant was collected and the contents of inflammatory factors IL-1B and TNF-α were determined.

[2] = test system: rat model of hydrochloric acid-induced acute lung injury; experiment: Animal Test 2: rat model of hydrochloric acid-induced acute lung injury; assay type: in vivo, rats
Procedure: Animal grouping: 4 groups, each group having 8 animals.
Establishment of rat model of hydrochloric acid-induced acute lung injury: 0.1 N HCL was sprayed into the trachea of rats at a dosage of 0.1 mL/rat.
Both groups were administered twice by tail vein injection, immediately after the model establishment and again 2.5 hrs after the model establishment.
The rats were sacrificed 5 h after the model establishment. Alveolar lavage was performed. The inflammatory cells, protein exudation, pulmonary hemorrhage and NE enzyme activity in the lavage fluid were measured.

[3] = alveolar lavage fluid 5 h after model establishment, tail vein injection twice, total 120 mg/kg
[4] = alveolar lavage fluid 5 h after model establishment, tail vein injection twice, total 30 mg/kg

| SMILES | IC50 (rhELA2) [nM] | other results |
| --- | --- | --- |
| Cn1nccc1-c1ccc(NS(=O)(=O)c2ccc(OC(=O)C(C)(C)C)cc2)c(C(=O)NCC(=O)O)c1 [Compound 1, (5-(1-methyl-1H-pyrazol-5-yl)-2-((4-(pivaloyloxy)phenyl)sulfonamido)benzoyl)glycine] | 20.4 | – |
| Cn1cc(-c2ccc(NS(=O)(=O)c3ccc(OC(=O)C(C)(C)C)cc3)c(C(=O)NCC(=O)O)c2)cn1 [Compound 2] | 30.5 | – |
| CC(C)(C)C(=O)Oc1ccc(S(=O)(=O)Nc2ccc(-n3ccnc3)cc2C(=O)NCC(=O)O)cc1 [Compound 3] | 23.6 | – |
| CC(C)(C)C(=O)Oc1ccc(S(=O)(=O)N[C@@H]2CCC(F)(F)C[C@@H]2C(=O)NCC(=O)O)cc1 [Compound 6] | 32.8 | – |
| CC(C)(C)C(=O)Oc1ccc(S(=O)(=O)Nc2ccc(-c3cnoc3)cc2C(=O)NCC(=O)O)cc1 [Compound 11] | 27 | – |
| CC(C)(C)C(=O)Oc1ccc(S(=O)(=O)Nc2ccccc2C(=O)NCP(=O)(O)O)cc1 [Compound 12, ((2-((4-(pivaloyloxy)phenyl)sulfonamido)benzamido)methyl)phosphonic acid] | 5.69 | – |
| CC(C)(C)C(=O)Oc1ccc(S(=O)(=O)Nc2ccccc2C(=O)NCCS(=O)(=O)O)cc1 [Compound 13, 2-(2-((4-(pivaloyloxy)phenyl)sulfonamido)benzamido) ethan-1-sulfonic acid] | 4.22 | – |
| COc1ccc(NS(=O)(=O)c2ccc(OC(=O)C(C)(C)C)cc2)c(C(=O)NCC(=O)O)c1 [Compound 17] | 15.3 | – |
| CC(C)(C)C(=O)Oc1ccc(S(=O)(=O)Nc2ccccc2C(=O)N[C@H](CF)C(=O)O)cc1 [Compound 19] | 2.25 | – |
| COC[C@@H](NC(=O)c1ccccc1NS(=O)(=O)c1ccc(OC(=O)C(C)(C)C)cc1)C(=O)O [Compound 20] | 2.47 | inhibitory effects on inflammatory factors IL-1B and TNF-α, compared with Sivelestat sodium ([1]; both 75 mg/kg total, i.v.): significantly better than those of Sivelestat sodium; Content of inflammatory factor IL-1β (Mean ± SD) [1]: 784 ± 159 pg/mL; Content of inflammatory factor TNF-α (Mean ± SD) [1]: 442 ± 118 pg/mL; improvement of pulmonary hemorrhage, reduction of protein exudation and white blood cell count in alveolar lavage fluid, compared with Sivelestat sodium ([2]; Compound 20 120 mg/kg vs Sivelestat sodium 30 mg/kg): more obviously compared with Sivelestat sodium; Protein content in alveolar lavage fluid [2, 3]: 0.30 ± 0.05 mg/mL; Pulmonary hemorrhage (IOD, absorbance at 412 nm) [2, 3]: 0.20 ± 0.03; White blood cell count (WBC, 1 × 10^6 cell/mL) [2, 3]: 0.28 ± 0.10 ** 1 × 10^6 cell/mL |
| C[C@@H](NC(=O)c1cc(F)ccc1NS(=O)(=O)c1ccc(OC(=O)C(C)(C)C)cc1)C(=O)O [Compound 21] | 2.26 | – |
| C[C@@H](NC(=O)c1cc(C#N)ccc1NS(=O)(=O)c1ccc(OC(=O)C(C)(C)C)cc1)C(=O)O [Compound 22] | 2.2 | – |
| C[C@@H](NC(=O)c1ccccc1NS(=O)(=O)c1ccc(OC(=O)C(C)(C)C)c(F)c1)C(=O)O [Compound 23] | 3.69 | – |
| COC[C@@H](NC(=O)c1cc(C#N)ccc1NS(=O)(=O)c1ccc(OC(=O)C(C)(C)C)cc1)C(=O)O [Compound 24] | 1.5 | – |
| [2H]C([2H])([2H])OC[C@@H](NC(=O)c1ccccc1NS(=O)(=O)c1ccc(OC(=O)C(C)(C)C)cc1)C(=O)O [Compound 25, O-(methyl-d3)-N-(2-((4-(pivaloyloxy)phenyl)sulfonamido)benzoyl)-D-serine] | 2.54 | – |
| COC[C@H](NC(=O)c1ccccc1NS(=O)(=O)c1ccc(OC(=O)C(C)(C)C)cc1)C(=O)O [Compound 26] | 8.49 | – |
| CSCC(NC(=O)c1ccccc1NS(=O)(=O)c1ccc(OC(=O)C(C)(C)C)cc1)C(=O)O (centres unmarked) [Compound 27] | 130 | – |
| CC(C)(C)C(=O)Oc1ccc(S(=O)(=O)Nc2ccccc2C(=O)NCC(=O)O)cc1 [Sivelestat sodium, reference compound] | – | Content of inflammatory factor IL-1β (Mean ± SD) [1]: 1048 ± 384 ^ pg/mL; Content of inflammatory factor TNF-α (Mean ± SD) [1]: 552 ± 77 pg/mL; Protein content in alveolar lavage fluid (mg/mL) [2, 4]: 0.35 ± 0.07 **^ mg/mL; Pulmonary hemorrhage (IOD, absorbance at 412 nm) [2, 4]: 0.25 ± 0.10; White blood cell count (WBC, 1 × 10^6 cell/mL) [2, 4]: 0.42 ± 0.11 1 × 10^6 cell/mL |
